Assay results reported in PubChem BioAssay AID330 (DTP/NCI, 2004).
Where “and” joins values, the source holds several entries; their conditions need not be identical. Equal values may be shown once. Inconclusive results and toxic doses are left out. Peptide text beside a SMILES is read from it.

Test system: P388 leukemia ip, CD2F1 mice, survival T/C
Assay: NCI In Vivo Anticancer Drug Screen. Data for tumor model P388 Leukemia (intraperitoneal) in CD2F1 (CDF1) mice
Settings: endpoint: median survival time, higher = longer survival
In short: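 Mice carrying the transplanted tumor received test compound or vehicle. Survival was recorded in each group, and the value is the treated-group measurement divided by that of the vehicle-treated control group.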

[1] = dose: 50.0 mg/kg/injection, schedule: Q01DX005 (ip), vehicle: Klucel (hydroxypropylcellulose) (HPC)
[2] = dose: 100.0 mg/kg/injection, schedule: Q01DX005 (ip), vehicle: Klucel (hydroxypropylcellulose) (HPC)
[3] = dose: 200.0 mg/kg/injection, schedule: Q01DX005 (ip), vehicle: Klucel (hydroxypropylcellulose) (HPC)
[4] = dose: 60.0 mg/kg/injection, schedule: Q01DX005 (ip), vehicle: saline with Tween-80
[5] = dose: 120.0 mg/kg/injection, schedule: Q01DX005 (ip), vehicle: saline with Tween-80
[6] = dose: 240.0 mg/kg/injection, schedule: Q01DX005 (ip), vehicle: saline with Tween-80
[7] = dose: 50.0 mg/kg/injection, schedule: Q01DX005 (ip), vehicle: saline with Tween-80
[8] = dose: 100.0 mg/kg/injection, schedule: Q01DX005 (ip), vehicle: saline with Tween-80
[9] = dose: 50.0 mg/kg/injection, schedule: Q01DX009 (ip), vehicle: saline with Tween-80
[10] = dose: 100.0 mg/kg/injection, schedule: Q01DX009 (ip), vehicle: saline with Tween-80
[11] = dose: 200.0 mg/kg/injection, schedule: Q01DX009 (ip), vehicle: saline with Tween-80
[12] = dose: 12.5 mg/kg/injection, schedule: Q01DX009 (ip), vehicle: saline with Tween-80
[13] = dose: 25.0 mg/kg/injection, schedule: Q01DX009 (ip), vehicle: saline with Tween-80
[14] = dose: 50.0 mg/kg/injection, schedule: Q01DX009 (ip), vehicle: Klucel (hydroxypropylcellulose) (HPC)
[15] = dose: 50.0 mg/kg/injection, schedule: Q01DX005 (ip), vehicle: saline
[16] = dose: 100.0 mg/kg/injection, schedule: Q01DX005 (ip), vehicle: saline
[17] = dose: 25.0 mg/kg/injection, schedule: Q01DX009 (ip), vehicle: other
[18] = dose: 100.0 mg/kg/injection, schedule: Q01DX009 (ip), vehicle: other

COc1cc2c(c(OC)c1OC)-c1ccc(OC)c(=O)cc1[C@@H](NC(=O)CF)CC2
T/C (dose: 23.4 micrograms/kg/injection, schedule: Q01DX009 (ip), vehicle: saline): 121 % of control
T/C (dose: 93.7 micrograms/kg/injection, schedule: Q01DX009 (ip), vehicle: saline): 152 % of control
T/C (dose: 187.5 micrograms/kg/injection, schedule: Q01DX009 (ip), vehicle: saline): 152 % of control
T/C (dose: 250.0 micrograms/kg/injection, schedule: Q04DX003 (ip), vehicle: saline): 163 % of control
T/C (dose: 375.0 micrograms/kg/injection, schedule: Q01DX009 (ip), vehicle: saline): 161 % of control
T/C (dose: 500.0 micrograms/kg/injection, schedule: Q04DX003 (ip), vehicle: saline): 204 % of control
T/C (dose: 2000.0 micrograms/kg/injection, schedule: Q04DX003 (ip), vehicle: saline): 122 % of control

COc1ccc2c(C)cc(N/N=C/c3ccc(OC)c4ccccc34)nc2c1
T/C [1]: 98 % of control
T/C [2]: 102 % of control
T/C [3]: 94 % of control

CC(=O)OCCOCn1cc(C)[n+]([O-])nc1=O
T/C [4]: 100 % of control
T/C [5]: 94 % of control
T/C [6]: 95 % of control

CCOC(=O)Cc1c(C)noc1OC
T/C (dose: 25.0 mg/kg/injection, schedule: Q01DX005 (ip), vehicle: saline with Tween-80): 106 % of control
T/C [7]: 97 % of control
T/C [8]: 99 % of control
T/C (dose: 200.0 mg/kg/injection, schedule: Q01DX005 (ip), vehicle: saline with Tween-80): 97 % of control

COc1ccc(NC(Cc2ccccc2)=NC(C)(C)C)cc1
T/C [9]: 98 % of control
T/C [10]: 89 % of control
T/C [11]: 94 % of control

CC1(O)c2ccccc2[P+](C)(c2ccccc2)c2ccccc21 (centres undefined)
T/C [12]: 111 % of control
T/C [13]: 109 % of control

O=c1[nH]c(=S)[nH]cc1Oc1ccc(I)cc1
T/C (dose: 12.5 mg/kg/injection, schedule: Q01DX009 (ip), vehicle: Klucel (hydroxypropylcellulose) (HPC)): 106 % of control
T/C (dose: 25.0 mg/kg/injection, schedule: Q01DX009 (ip), vehicle: Klucel (hydroxypropylcellulose) (HPC)): 107 % of control
T/C [14]: 104 % of control

CC(CC(C)C)=NC(C)CC(C)C (centres undefined)
T/C [15]: 97 % of control
T/C [16]: 95 % of control

COc1cccc2c1C(=O)c1c(O)c3c(c(O)c1C2=O)CC(O)(C(=O)CO)CC3OC1CC(NCC2(O)OCC(O)C(O)C2O)C(O)C(C)O1 (centres undefined)
T/C (dose: 14.5 mg/kg/injection, schedule: Q04DX003 (ip), vehicle: water): 179 % of control
T/C (dose: 29.0 mg/kg/injection, schedule: Q04DX003 (ip), vehicle: water): 239 % of control
T/C (dose: 58.0 mg/kg/injection, schedule: Q04DX003 (ip), vehicle: water): 116 % of control

CC1Nc2nc(N)[nH]c(=O)c2NC1C (centres undefined)
T/C (dose: 25.0 mg/kg/injection, schedule: Q01DX005 (ip), vehicle: saline): 97 % of control
T/C [15]: 100 % of control and 97 % of control
T/C [16]: 101 % of control and 97 % of control
T/C (dose: 200.0 mg/kg/injection, schedule: Q01DX005 (ip), vehicle: saline): 101 % of control and 95 % of control

COC1=CC(=O)C(C2OC(=O)C(Cl)=C2Cl)=CC1=O (centres undefined)
T/C [7]: 114 % of control
T/C [8]: 119 % of control

COc1cccc2c1C(=O)c1c(O)c3c(c(O)c1C2=O)C[C@@](O)(C(=O)CO)C[C@@H]3OC1CC(NC(=O)CN)C(O)C(C)O1 (some centres undefined)
T/C [17]: 93 % of control
T/C (dose: 50.0 mg/kg/injection, schedule: Q01DX009 (ip), vehicle: other): 94 % of control
T/C [18]: 96 % of control

CC(=O)Oc1c(C)c(OC(C)=O)c2c(c1C(C)=O)OC1=CC(O)=C(C(C)=O)C(=O)C12C (centres undefined)
T/C (dose: 6.25 mg/kg/injection, schedule: Q01DX009 (ip), vehicle: gum acacia): 98 % of control and 102 % of control
T/C (dose: 12.5 mg/kg/injection, schedule: Q01DX009 (ip), vehicle: gum acacia): 104 % of control and 105 % of control
T/C (dose: 25.0 mg/kg/injection, schedule: Q01DX009 (ip), vehicle: gum acacia): 100 % of control and 102 % of control
T/C (dose: 50.0 mg/kg/injection, schedule: Q01DX009 (ip), vehicle: gum acacia): 102 % of control and 110 % of control
T/C (dose: 100.0 mg/kg/injection, schedule: Q01DX009 (ip), vehicle: gum acacia): 113 % of control and 115 % of control
T/C (dose: 100.0 mg/kg/injection, schedule: Q04DX002 (ip), vehicle: saline with Tween-80): 97 % of control
T/C (dose: 200.0 mg/kg/injection, schedule: Q04DX002 (ip), vehicle: saline with Tween-80): 102 % of control
T/C (dose: 400.0 mg/kg/injection, schedule: Q04DX002 (ip), vehicle: saline with Tween-80): 101 % of control

C#CCN(C)Cc1cc(OC)c(OC)c(OC)c1
T/C (dose: 12.5 mg/kg/injection, schedule: Q01DX009 (ip), vehicle: saline): 102 % of control
T/C (dose: 25.0 mg/kg/injection, schedule: Q01DX009 (ip), vehicle: saline): 94 % of control
T/C (dose: 50.0 mg/kg/injection, schedule: Q01DX009 (ip), vehicle: saline): 102 % of control and 86 % of control
T/C (dose: 100.0 mg/kg/injection, schedule: Q01DX009 (ip), vehicle: saline): 95 % of control and 96 % of control

COc1cc(C)ccc1C1=NC(C)(c2ccc(C)cc2OC)NC1=S (centres undefined)
T/C (dose: 37.5 mg/kg/injection, schedule: Q01DX009 (ip), vehicle: Klucel (hydroxypropylcellulose) (HPC)): 124 % of control
T/C (dose: 75.0 mg/kg/injection, schedule: Q01DX009 (ip), vehicle: Klucel (hydroxypropylcellulose) (HPC)): 120 % of control

CCCCCCC(C(=O)OCC)P(=O)(OCC)OCC (centres undefined)
T/C (dose: 18.75 mg/kg/injection, schedule: Q01DX009 (ip), vehicle: saline sonified): 90 % of control
T/C (dose: 37.5 mg/kg/injection, schedule: Q01DX009 (ip), vehicle: saline sonified): 95 % of control
T/C (dose: 75.0 mg/kg/injection, schedule: Q01DX009 (ip), vehicle: saline sonified): 100 % of control

COC(=O)CCC(N=C(OC)c1ccccc1)C(=O)OC (centres undefined)
T/C [1]: 98 % of control
T/C [2]: 103 % of control
T/C [3]: 101 % of control

COP(=S)(OC)SCSc1ccc(Cl)cc1
T/C [12]: 89 % of control
T/C [13]: 91 % of control

COc1ccc(C/C=N/O)c(OC)c1
T/C (dose: 12.5 mg/kg/injection, schedule: Q01DX009 (ip), vehicle: other): 91 % of control
T/C [17]: 89 % of control
T/C [18]: 93 % of control

COc1ccc(C(=O)/C=C/c2ccc(OC)c(OC)c2OC)c(O)c1
T/C (dose: 100.0 mg/kg/injection, schedule: Q04DX003 (ip), vehicle: Klucel (hydroxypropylcellulose) (HPC)): 99 % of control
T/C (dose: 200.0 mg/kg/injection, schedule: Q04DX003 (ip), vehicle: Klucel (hydroxypropylcellulose) (HPC)): 99 % of control
T/C (dose: 400.0 mg/kg/injection, schedule: Q04DX003 (ip), vehicle: Klucel (hydroxypropylcellulose) (HPC)): 90 % of control

CCCCCCC(/C=C/c1ccc(Cl)c(Cl)c1)=N\Nc1c(Cl)cccc1Cl
T/C [14]: 91 % of control
T/C (dose: 100.0 mg/kg/injection, schedule: Q01DX009 (ip), vehicle: Klucel (hydroxypropylcellulose) (HPC)): 91 % of control
T/C (dose: 200.0 mg/kg/injection, schedule: Q01DX009 (ip), vehicle: Klucel (hydroxypropylcellulose) (HPC)): 87 % of control

CC(C)CC(NC(=O)C(N)Cc1c[nH]c2ccccc12)C(N)=O (stereo not drawn) (H-Trp-Leu-NH2; configuration not given here)
T/C (dose: 200.0 mg/kg/injection, schedule: Q04DX003 (ip), vehicle: saline): 95 % of control
T/C (dose: 400.0 mg/kg/injection, schedule: Q04DX003 (ip), vehicle: saline): 106 % of control

O=C(O)c1cccc(-c2nn[nH]n2)c1
T/C [1]: 93 % of control
T/C [2]: 90 % of control
T/C [3]: 102 % of control

CC(C#N)(Cc1ccccc1)Nc1ccccc1 (centres undefined)
T/C [9]: 95 % of control
T/C [10]: 90 % of control
T/C [11]: 95 % of control

CC[N+]1(CC)c2ccccc2CC1C (centres undefined)
T/C (dose: 6.25 mg/kg/injection, schedule: Q01DX001 (ip), vehicle: saline): 97 % of control
T/C (dose: 12.5 mg/kg/injection, schedule: Q01DX001 (ip), vehicle: saline): 101 % of control
T/C (dose: 25.0 mg/kg/injection, schedule: Q01DX001 (ip), vehicle: saline): 104 % of control

CCOC(=O)c1ccc(NC(=O)Oc2ccccc2C(=O)OC)cc1
T/C [4]: 100 % of control
T/C [5]: 100 % of control
T/C [6]: 95 % of control
